Patent publication US7915292B2, “Antibacterial quinoline derivatives” (Janssen Pharmaceutica NV, priority 2005, dated 2011)
In brackets after ≈: the same amount, converted by molar mass.

Key:
[1] = tested on: Mycobacterium tuberculosis (strain H37RV); experiment: In-vitro method for testing compounds against M. tuberculosis (resazurin growth inhibition); type: cell-based; conditions: Mycobacterium tuberculosis, 168 h, 7 days incubation, read-out: M. tuberculosis pIC50 (converted)
M. Smegmatis ATCC607 = experiment: In-vitro anti-bacterial activity against strain M. smegmatis ATCC607 (Alamar Blue growth inhibition); type: cell-based; conditions: 48 hours incubation; for IC50: Mycolicibacterium smegmatis, read-out: M. smegmatis pIC50 (converted)
Method: Serial five-fold dilutions (45 μl in 180 μl) were made directly in the microtiter plates from column 2 to 11 using a customised robot system (Zymark Corp., Hopkinton, Mass.). Pipette tips were changed after every 3 dilutions to minimize pipetting errors with high hydrophobic compounds. Untreated control samples with (column 1) and without (column 12) inoculum were included in each microtiter plate. Approximately 250 CFU per well of bacteria inoculum, in a volume of 100 μl in 2.8× Mueller-Hinton broth medium, was added to the rows […]. The same volume of broth medium without inoculum was added to column 12 in row A to H. The cultures were incubated at 37° C. for 48 hours in a humidified 5% CO2 atmosphere (incubator with open air valve and continuous ventilation). At the end of incubation, two days after inoculation, the bacterial growth was quantitated fluorometrically. Therefore Alamar Blue (10×) was added to all wells in a volume of 20 μl and plates were incubated for another 2 hours at […] The fluorescence was read in a computer-controlled fluorometer (Cytofluor, Biosearch) at an excitation wavelength of 530 nm and an emission wavelength of 590 nm (gain 30). The percentage growth inhibition achieved by the compounds was calculated according to standard methods and expressed as pIC50 values.

STA 29213 = experiment: Microtitre plate assay, IC90 determination, STA 29213; type: cell-based, S. aureus; conditions: 90% inhibitory concentration for bacterial growth, strain STA 29213, 24 hours at 37° C.; for IC90: Staphylococcus aureus, read-out: IC90 (μg/ml) STA 29213
Method: (§1) Stocks (0.5 ml/tube) were stored at -70° C. until use. Bacteria titrations were performed in microtiter plates to detect the TCID50, in which the TCID50 represents the dilution that gives rise to bacterial growth in 50% of inoculated cultures. In general, an inoculum level of approximately 100 TCID50 was used for susceptibility testing. […] Serial five-fold dilutions (45 μl in 180 μl) were made directly in the microtiter plates from column 2 to reach column 11. Untreated control samples with (column 1) and without (column 12) inoculum were included in each microtiter plate. Depending on the bacteria type, approximately 10 to 60 CFU per well of bacteria inoculum (100 TCID50), in a volume of 100 μl in 2.8× Mueller-Hinton broth medium, was added to the rows […]. The same volume of broth medium without inoculum was added to column 12 in row A to H. The cultures were incubated at 37° C. for 24 hours under a normal atmosphere (incubator with open air valve and continuous ventilation). At the end of incubation, one day after inoculation, the bacterial growth was quantitated fluorometrically. Therefore resazurin (0.6 mg/ml) was added in a volume of 20 μl to all wells 3 hours after inoculation, and the plates were re-incubated overnight. A change in colour from blue to pink indicated the growth of bacteria. The fluorescence was read in a computer-controlled fluorometer (Cytofluor Biosearch) at an excitation wavelength of 530 nm and an emission wavelength of 590 nm. The % growth inhibition achieved by the compounds was calculated according to standard methods. The IC90 (expressed in μg/ml) was defined as the 90% inhibitory concentration for bacterial growth.

ECO 25922 = experiment: Microtitre plate assay, IC90 determination, ECO 25922; type: cell-based, E. coli; conditions: 90% inhibitory concentration for bacterial growth, strain ECO 25922, 24 hours at 37° C.; for IC90: Escherichia coli, read-out: IC90 (μg/ml) ECO 25922
Method: as §1

EFA 29212 = experiment: Microtitre plate assay, IC90 determination, EFA 29212; type: cell-based, E. faecalis; conditions: Enterococcus faecalis; 90% inhibitory concentration for bacterial growth; strain EFA 29212; 24 hours at 37° C.; read-out: IC90 (μg/ml) EFA 29212
Method: as §1

LMO 49594 = experiment: Microtitre plate assay, IC90 determination, LMO 49594; type: cell-based, Listeria monocytogenes; conditions: Listeria monocytogenes; 90% inhibitory concentration for bacterial growth; strain LMO 49594; 24 hours at 37° C.; read-out: IC90 (μg/ml) LMO 49594
Method: as §1

SMU 33402 = experiment: Microtitre plate assay, IC90 determination, SMU 33402; type: cell-based, S. mutans; conditions: Streptococcus mutans; 90% inhibitory concentration for bacterial growth; strain SMU 33402; 24 hours at 37° C.; read-out: IC90 (μg/ml) SMU 33402
Method: as §1

SPN 6305 = experiment: Microtitre plate assay, IC90 determination, SPN 6305; type: cell-based, S. pneumoniae; conditions: 90% inhibitory concentration for bacterial growth, strain SPN 6305, 24 hours at 37° C.; for IC90: Streptococcus pneumoniae, read-out: IC90 (μg/ml) SPN 6305
Method: as §1

SPY 8668 = experiment: Microtitre plate assay, IC90 determination, SPY 8668; type: cell-based, S. pyogens; conditions: 90% inhibitory concentration for bacterial growth; strain SPY 8668; 24 hours at 37° C.; read-out: IC90 (μg/ml) SPY 8668
Method: as §1

STA RMETH = experiment: Microtitre plate assay, IC90 determination, STA RMETH; type: cell-based, S. aureus; conditions: Staphylococcus aureus; 90% inhibitory concentration for bacterial growth; strain STA RMETH; 24 hours at 37° C.; read-out: IC90 (μg/ml) STA RMETH
Method: as §1

BSU 43639 = experiment: Microtitre plate assay, IC90 determination, BSU 43639; type: cell-based, Bacillus subtilis; conditions: Bacillus subtilis; 90% inhibitory concentration for bacterial growth; strain BSU 43639; 24 hours at 37° C.; read-out: IC90 (μg/ml) BSU 43639
Method: as §1

EFA 14506 = experiment: Microtitre plate assay, IC90 determination, EFA 14506; type: cell-based, E. faecalis; conditions: Enterococcus faecalis; 90% inhibitory concentration for bacterial growth; strain EFA 14506; 24 hours at 37° C.; read-out: IC90 (μg/ml) EFA 14506
Method: as §1

PAE 27853 = experiment: Microtitre plate assay, IC90 determination, PAE 27853; type: cell-based, Pseudomonas aeruginosa; conditions: Pseudomonas aeruginosa; 90% inhibitory concentration for bacterial growth; strain PAE 27853; 24 hours at 37° C.; read-out: IC90 (μg/ml) PAE 27853
Method: as §1

STA 25923 = experiment: Microtitre plate assay, IC90 determination, STA 25923; type: cell-based, S. aureus; conditions: Staphylococcus aureus; 90% inhibitory concentration for bacterial growth; strain STA 25923; 24 hours at 37° C.; read-out: IC90 (μg/ml) STA 25923
Method: as §1

## CNC(=O)CN(C)C(c1ccccc1)c1cc2cc(Br)ccc2nc1OC (centres unmarked) [Compound 3]
[1]
  IC50: > 100 µM
M. Smegmatis ATCC607
  IC50: 89.1 µM
other
  melting point: 190 °C

## CCN(CC)C(=O)CN(C)C(c1ccccc1)c1cc2cc(Br)ccc2nc1OC (centres unmarked) [Compound 11]
M. Smegmatis ATCC607
  M. smegmatis pIC50: 5.1
STA 29213
  IC90 (μg/ml) STA 29213: 11.8 µg/mL (≈ 25.1 µM)

## COc1cccc(CN(CCN(C)C)C(c2ccccc2)c2cc3cc(Br)ccc3nc2OC)c1 (centres unmarked) [Compound 20]
M. Smegmatis ATCC607
  IC50: 1.26 µM
ECO 25922
  IC90: 15.7 µg/mL (≈ 29.4 µM)
EFA 29212
  IC90: 15.7 µg/mL (≈ 29.4 µM)
LMO 49594
  IC90: 15.7 µg/mL (≈ 29.4 µM)
SMU 33402
  IC90: 12.5 µg/mL (≈ 23.4 µM)
SPN 6305
  IC90: 15.7 µg/mL (≈ 29.4 µM)
SPY 8668
  IC90: 12.5 µg/mL (≈ 23.4 µM)
STA 29213
  IC90: 14 µg/mL (≈ 26.2 µM)
STA RMETH
  IC90: 14 µg/mL (≈ 26.2 µM)

## COc1nc2ccc(Br)cc2cc1C(c1ccccc1F)N(CCN(C)C)Cc1ccccc1 (centres unmarked) [Compound 22]
M. Smegmatis ATCC607
  IC50: 1.58 µM
BSU 43639
  IC90: 41.5 µg/mL (≈ 79.4 µM)
ECO 25922
  IC90: 52.2 µg/mL (≈ 99.9 µM)
EFA 14506
  IC90: 41.5 µg/mL (≈ 79.4 µM)
EFA 29212
  IC90: 10.4 µg/mL (≈ 19.9 µM)
LMO 49594
  IC90: 8.3 µg/mL (≈ 15.9 µM)
PAE 27853
  IC90: 13.1 µg/mL (≈ 25.1 µM)
STA 25923
  IC90: 8.3 µg/mL (≈ 15.9 µM)
STA 29213
  IC90: 10.4 µg/mL (≈ 19.9 µM)

## CC(C)N(C)C(=O)CN(Cc1ccccc1)C(c1cccnc1)c1cc2ccccc2nc1-c1ccccc1 (centres unmarked) [Compound 34]
M. Smegmatis ATCC607
  M. smegmatis pIC50: 5.8
STA 29213
  IC90 (μg/ml) STA 29213: 51.5 µg/mL (≈ 100 µM)

## Cc1ccc2nc(-c3ccccc3)c(C(c3ccccc3)N(CC(=O)N(C)C(C)C)Cc3ccccc3)cc2c1 (centres unmarked) [Compound 41]
[1]
  IC50: 6.31 µM
M. Smegmatis ATCC607
  IC50: 0.1 µM
ECO 25922
  IC90: 13.3 µg/mL (≈ 25.2 µM)
other
  melting point: 126 °C

## CN(C)C(=O)CN(Cc1ccccc1)C(c1ccccc1)c1cc2cc(Br)ccc2nc1-c1ccccc1 (centres unmarked) [Compound 53]
[1]
  IC50: 20 µM
M. Smegmatis ATCC607
  IC50: 0.316 µM
ECO 25922
  IC90: 14.2 µg/mL (≈ 25.2 µM)
other
  melting point: 110 °C

## COc1nc2ccc(C)cc2cc1C(c1ccccc1)N(CC(=O)N1CCOCC1)Cc1ccccc1 (centres unmarked) [Compound 59]
M. Smegmatis ATCC607
  IC50: 1.58 µM
ECO 25922
  IC90: 12.4 µg/mL (≈ 25 µM)
other
  melting point: 126 °C

## Cc1ccc2nc(-c3ccccc3)c(C(c3ccccc3)N(CC(=O)N3CCCCC3)Cc3ccccc3)cc2c1 (centres unmarked) [Compound 66]
[1]
  IC50: 39.8 µM
M. Smegmatis ATCC607
  IC50: 2.51 µM
ECO 25922
  IC90: 13.6 µg/mL (≈ 25.2 µM)
other
  melting point: 78 °C

## Cc1ccc2nc(-c3ccccc3)c(C(c3ccccc3)N(CC(=O)NN3CCN(C)CC3)Cc3ccccc3)cc2c1 (centres unmarked) [Compound 69]
M. Smegmatis ATCC607
  IC50: 1.58 µM
STA 29213
  IC90: 9 µg/mL (≈ 15.8 µM)

## Cc1ccc2nc(-c3ccccc3)c(C(c3ccccc3)N(CC(=O)N3CCSCC3)Cc3ccccc3)cc2c1 (centres unmarked) [Compound 70]
[1]
  IC50: 3.16 µM
M. Smegmatis ATCC607
  IC50: 0.251 µM
ECO 25922
  IC90: 14 µg/mL (≈ 25.1 µM)
EFA 29212
  IC90: 14 µg/mL (≈ 25.1 µM)
LMO 49594
  IC90: 14 µg/mL (≈ 25.1 µM)
other
  melting point: 144 °C

## COc1nc2ccc(Br)cc2cc1C(c1ccccc1)N(CC(=O)N1CCN(C)CC1)Cc1ccccc1 (centres unmarked) [Compound 104]
M. Smegmatis ATCC607
  IC50: 1.58 µM
BSU 43639
  IC90: 12.8 µg/mL (≈ 22.3 µM)
ECO 25922
  IC90: 14.4 µg/mL (≈ 25.1 µM)
PAE 27853
  IC90: 14.4 µg/mL (≈ 25.1 µM)
SMU 33402
  IC90: 11.4 µg/mL (≈ 19.9 µM)
SPN 6305
  IC90: 14.4 µg/mL (≈ 25.1 µM)
SPY 8668
  IC90: 11.4 µg/mL (≈ 19.9 µM)
STA 25923
  IC90: 12.8 µg/mL (≈ 22.3 µM)
STA 29213
  IC90: 11.4 µg/mL (≈ 19.9 µM)
STA RMETH
  IC90: 12.8 µg/mL (≈ 22.3 µM)
other
  melting point: 152 °C

## COc1nc2ccc(Br)cc2cc1C(c1ccccc1)N(CC(=O)N1CCOCC1)Cc1ccccc1 (centres unmarked) [Compound 112]
M. Smegmatis ATCC607
  M. smegmatis pIC50: 5.8
STA 29213
  IC90 (μg/ml) STA 29213: 14.1 µg/mL (≈ 25.2 µM)

## COc1nc2ccc(C#N)cc2cc1C(c1ccccc1)N(CC(=O)N1CCCC1)Cc1ccccc1 (centres unmarked) [Compound 122]
M. Smegmatis ATCC607
  IC50: 63.1 µM
ECO 25922
  IC90: 12.3 µg/mL (≈ 25.1 µM)
other
  melting point: 161 °C

## COc1nc2ccc(C#N)cc2cc1C(c1ccccc1)N(CC(=O)N1CCN(C)CC1)Cc1ccccc1 (centres unmarked) [Compound 123]
M. Smegmatis ATCC607
  M. smegmatis pIC50: 5.2
ECO 25922
  IC90 (μg/ml) ECO 25922: 13.1 µg/mL (≈ 25.2 µM)
SPN 6305
  IC90 (μg/ml) SPN 6305: 13.1 µg/mL (≈ 25.2 µM)

## CCOC(=O)CN(Cc1ccccc1)C(c1ccccc1)c1cc2cc(Br)ccc2nc1OC (centres unmarked) [Compound 137]
ECO 25922
  IC90: 13 µg/mL (≈ 25 µM)
STA 25923
  IC90: 11.6 µg/mL (≈ 22.3 µM)

## CCOC(=O)CN(Cc1cccc2ncccc12)C(c1ccccc1)c1cc2cc(Br)ccc2nc1OC (centres unmarked) [Compound 145]
M. Smegmatis ATCC607
  IC50: 31.6 µM
other
  melting point: 96 °C
